# Assay results from US20160194358A1, “LINEAR PEPTIDE ANTIBIOTCS” (priority 2013, published 2016).
# Where two headings read alike, the source gives them in different places. *1 amine or outer side, *2 acyl side, *3 side chain or, on linkers, in order; H or OH if unused. Where a SMILES comes first, the peptide text is derived from it. [ ]: non-standard residue; d: D form. The star is where a group is joined. boroAla((+)-pinanediol) = C[C@H](N*)B1O[C@@H]2C[C@@H]3C[C@@H](C3(C)C)[C@]2(C)O1; Benzoyl(4-(4-Cl-Ph)) = O=C(c1ccc(-c2ccc(Cl)cc2)cc1)*; Ethanesulfonyl(2-NHDecyl) = CCCCCCCCCCNCCS(=O)(=O)*; Propanoyl(3-decylamino) = CCCCCCCCCCNCCC(=O)*; X18 = CCCCc1ccc(-c2ccc(S(=O)(=O)*)cn2)cc1; X21 = O=S(=O)(c1ccc(-c2ccc(Cl)cc2)nc1)*; X32 = CCCCCCN1CCN([*:1])C(C(=O)[*:2])C1; X33 = CC(C)(O)C#CC#Cc1ccc(C(=O)*)cc1; AlaCOCOOMe = COC(=O)C(=O)[C@H](C)N*; X31 = O=S(=O)(c1ccc(-c2ccccc2)cn1)*; X35 = O=C(c1cnc(-c2ccc(Cl)cc2)nc1)*; Myristoyl = CCCCCCCCCCCCCC(=O)*; X23 = O=C(c1ccc(C#CC#CCCO)cc1)*; X28 = C[C@H](N*)C(=O)c1ncccn1; X22 = C[C@H](N*)C(=O)C(=O)O; Decanoyl = CCCCCCCCCC(=O)*; X17 = CCCCCCCCCNCCCC(=O)*; boroAla = C[C@H](N*)B(O)O; Dab = NCC[C@H](N)C(=O)O; Dap = NC[C@H](N)C(=O)O
# How the values were obtained:
# [1] = tested on: Escherichia coli strain MC4100 IMP-4213, which harbors an LptD mutation; conditions: E. coli MC4100 IMP-4213; 35° C., 22 hours
# Method: (§1) In vitro antimicrobial activity of each compound was determined by measuring minimal inhibitor concentrations (MICs) using the broth micro-dilution technique as approved by the Clinical and Laboratory Standards Institute (CLSI). Antibacterial activity was measure against two strains of bacteria: 1) methicillin resistant Staphylococcus aureus (MRSA) strain USA300 (NRS384) and 2) Escherichia coli strain MC4100 IMP-4213, which harbors an LptD mutation. Bacterial inocula were prepared by scraping cells into 1 mL of testing media (cation adjusted Mueller Hinton Broth supplemented with 0.002% v/v Tween-80) and diluting to a final OD600nm of 0.01.
# (§2) Test compounds were prepared in DMSO at a concentration of 10 mg/ml. These compound stocks were diluted into testing media at a concentration of 64 μg/ml and 9 serial 1:2 dilutions were made in the same media, in 96-well U bottom microtiter dishes. Bacterial inocula were added to the two fold serial dilutions of test compounds to a final density of OD OD600nm of 0.0005 and incubated stationarily at 35° C. for 22 hours, after which the plates were examined visually.
# [2] = tested on: methicillin resistant Staphylococcus aureus (MRSA) strain USA300 (NRS384)
# Method: as §1, §2
# [3] = MRSA USA300 (NRS384), 35° C., 22 hours
Structure (SMILES),MIC (μg/mL) E. coli [1] [µg/mL],"MIC (μg/mL) S. aureus [2, 3] [µg/mL]","MIC (μg/mL) S. aureus ([2]; USA300, 22 h) [µg/mL]"
C[C@H](NC(=O)[C@H](CCCCN)NC(=O)[C@H](C)NC(=O)[C@@H](NC(=O)[C@H](CCN)NC(=O)c1ccc(C#CC#CC(C)(C)O)cc1)[C@@H](C)O)B1O[C@@H]2C[C@@H]3C[C@@H](C3(C)C)[C@]2(C)O1 [Compound 264] (X33-[Dab]TAK-{boroAla((+)-pinanediol)}),4,8,–
C[C@H](NC(=O)[C@H](CCCCN)NC(=O)[C@H](C)NC(=O)[C@@H](NC(=O)[C@H](CCN)NS(=O)(=O)c1ccc(-c2ccc(Cl)cc2)nc1)[C@@H](C)O)B1O[C@@H]2C[C@@H]3C[C@@H](C3(C)C)[C@]2(C)O1 [Compound 234] (X21-[Dab]TAK-{boroAla((+)-pinanediol)}),32,16,–
C[C@H](NC(=O)[C@H](CCCCN)NC(=O)[C@H](C)NC(=O)[C@@H](NC(=O)[C@H](CCN)NC(=O)c1cnc(-c2ccc(Cl)cc2)nc1)[C@@H](C)O)B1O[C@@H]2C[C@@H]3C[C@@H](C3(C)C)[C@]2(C)O1 [Compound 261] (X35-[Dab]TAK-{boroAla((+)-pinanediol)}),4,1.7,–
CCCCCCCCCCNCCC(=O)N[C@@H](CCCCN)C(=O)N[C@H](C(=O)N[C@@H](C)C(=O)N[C@@H](CCCCN)C(=O)N[C@@H](C)C(=O)C(=O)OC)[C@@H](C)O [Compound 248] ({Propanoyl(3-decylamino)}-KTAK-AlaCOCOOMe),>64,–,1
CCCCc1ccc(-c2ccc(C(N[C@@H](CCCCN)C(=O)N[C@H](C(=O)N[C@@H](C)C(=O)N[C@@H](CC(C)C)C(=O)N[C@@H](C)B3O[C@@H]4C[C@@H]5C[C@@H](C5(C)C)[C@]4(C)O3)[C@@H](C)O)C(F)(F)F)cc2)cc1 (some centres unmarked) [Compound 277],4,1.4,–
CCCCCCCCCCNCCS(=O)(=O)N[C@@H](CCN)C(=O)N[C@H](C(=O)N[C@@H](C)C(=O)N[C@@H](CCCCN)C(=O)N[C@@H](C)B1O[C@@H]2C[C@@H]3C[C@@H](C3(C)C)[C@]2(C)O1)[C@@H](C)O [Compound 239] ({Ethanesulfonyl(2-NHDecyl)}-[Dab]TAK-{boroAla((+)-pinanediol)}),4,0.25,–
C[C@H](NC(=O)[C@@H](NC(=O)[C@H](CCN)NC(=O)c1ccc(-c2ccc(Cl)cc2)cc1)[C@@H](C)O)C(=O)N[C@@H](CCCCN)C(=O)N[C@@H](C)C(=O)C(=O)O [Compound 247] ({Benzoyl(4-(4-Cl-Ph))}-[Dab]TAK-X22),>64,3.2,–
CCCCCCCCCCNCCC(=O)N[C@@H](CN)C(=O)N[C@H](C(=O)N[C@@H](C)C(=O)N[C@@H](CC(N)=O)C(=O)N[C@@H](C)B(O)O)[C@@H](C)O [Compound 222] ({Propanoyl(3-decylamino)}-[Dap]TAN-boroAla),8,–,2
C[C@H](NC(=O)[C@H](CCCCN)NC(=O)[C@H](C)NC(=O)[C@@H](NC(=O)[C@H](CCN)NC(=O)c1ccc(C#CC#CCCO)cc1)[C@@H](C)O)B1O[C@@H]2C[C@@H]3C[C@@H](C3(C)C)[C@]2(C)O1 [Compound 265] (X23-[Dab]TAK-{boroAla((+)-pinanediol)}),16,16,–
CCCCCCCCCCNCCC(=O)N[C@@H](CCCCN)C(=O)N[C@@H](C)C(=O)N[C@@H](CCCCN)C(=O)N[C@@H](C)B1O[C@@H]2C[C@@H]3C[C@@H](C3(C)C)[C@]2(C)O1 [Compound 268],8,–,0.5
CCCCCCCCCNCCCC(=O)N[C@@H](CCCCN)C(=O)N[C@H](C(=O)N[C@@H](C)C(=O)N[C@@H](CCCCN)C(=O)N[C@@H](C)B(O)O)[C@@H](C)O [Compound 228] (X17-KTAK-boroAla),>64,–,2
CCCCCCCCCCNCCC(=O)N[C@@H](CCN)C(=O)N[C@H](C(=O)N[C@@H](C)C(=O)N[C@@H](CCCCN)C(=O)N[C@@H](C)B(O)O)[C@@H](C)O [Compound 219] ({Propanoyl(3-decylamino)}-[Dab]TAK-boroAla),16,–,1
CCCCCCCCCCNCCC(=O)N[C@@H](CN)C(=O)N[C@H](C(=O)N[C@@H](C)C(=O)N[C@@H](CCCCN)C(=O)N[C@@H](C)B(O)O)[C@@H](C)O [Compound 220] ({Propanoyl(3-decylamino)}-[Dap]TAK-boroAla),16,–,1
C[C@H](NC(=O)[C@H](CCCCN)NC(=O)[C@H](C)NC(=O)[C@@H](NC(=O)[C@H](CCN)NC(=O)c1ccc(-c2ccc(Cl)cc2)cc1)[C@@H](C)O)B1O[C@@H]2C[C@@H]3C[C@@H](C3(C)C)[C@]2(C)O1 [Compound 112] ({Benzoyl(4-(4-Cl-Ph))}-[Dab]TAK-{boroAla((+)-pinanediol)}),64,–,1
CCCCCCCCCCCCCC(=O)N[C@@H](CCN)C(=O)N[C@H](C(=O)N[C@@H](C)C(=O)N[C@@H](CCCCN)C(=O)N[C@@H](C)B1O[C@@H]2C[C@@H]3C[C@@H](C3(C)C)[C@]2(C)O1)[C@@H](C)O [Compound 272] (Myristoyl-[Dab]TAK-{boroAla((+)-pinanediol)}),0.13,0.13,–
CCCCCCCCCCNCCC(=O)N[C@@H](CCCCN)C(=O)N[C@H](C(=O)N[C@@H](C)C(=O)N[C@@H](CC(N)=O)C(=O)N[C@@H](C)B(O)O)[C@@H](C)O [Compound 221] ({Propanoyl(3-decylamino)}-KTAN-boroAla),64,–,4
C[C@H](NC(=O)[C@@H](NC(=O)[C@H](CN)NC(=O)c1ccc(-c2ccc(Cl)cc2)cc1)[C@@H](C)O)C(=O)N[C@@H](CCCCN)C(=O)N[C@@H](C)C(=O)c1ncccn1 [Compound 267] ({Benzoyl(4-(4-Cl-Ph))}-[Dap]TAK-X28),32,11,–
CCCCCCCCCCNCCS(=O)(=O)N[C@@H](CCCCN)C(=O)N[C@H](C(=O)N[C@@H](C)C(=O)N[C@@H](CCCCN)C(=O)N[C@@H](C)B1O[C@@H]2C[C@@H]3C[C@@H](C3(C)C)[C@]2(C)O1)[C@@H](C)O [Compound 237] ({Ethanesulfonyl(2-NHDecyl)}-KTAK-{boroAla((+)-pinanediol)}),32,0.35,–
CCCCCCCCCCNCCN[C@@H](CO)C(=O)N[C@H](C(=O)N[C@@H](C)C(=O)N[C@@H](CCCCN)C(=O)N[C@@H](C)B1O[C@@H]2C[C@@H]3C[C@@H](C3(C)C)[C@]2(C)O1)[C@@H](C)O [Compound 242],64,4,–
CCCCCCCCCCNCCS(=O)(=O)N[C@@H](CCCCN)C(=O)N[C@H](C(=O)N[C@@H](C)C(=O)N[C@@H](CCCCN)C(=O)N[C@@H](C)C(=O)C(=O)OC)[C@@H](C)O [Compound 250] ({Ethanesulfonyl(2-NHDecyl)}-KTAK-AlaCOCOOMe),>64,–,0.5
CCCCCCCCCC(=O)NCC(=O)N[C@@H](CCCCN)C(=O)N[C@H](C(=O)N[C@@H](C)C(=O)N[C@@H](CCCCN)C(=O)N[C@@H](C)B1O[C@@H]2C[C@@H]3C[C@@H](C3(C)C)[C@]2(C)O1)[C@@H](C)O [Compound 259] (Decanoyl-GKTAK-{boroAla((+)-pinanediol)}),64,2.4,–
CCCCCCCCCCNCCC(=O)N[C@@H](CCCCN)C(=O)N[C@@H](CC(=O)O)C(=O)N[C@@H](C)C(=O)N[C@@H](CCCCN)C(=O)N[C@@H](C)B1O[C@@H]2C[C@@H]3C[C@@H](C3(C)C)[C@]2(C)O1 [Compound 224] ({Propanoyl(3-decylamino)}-KDAK-{boroAla((+)-pinanediol)}),>64,11,–
CCCCCCN1CCNC(C(=O)N[C@@H](CCCCN)C(=O)N[C@H](C(=O)N[C@@H](C)C(=O)N[C@@H](CCCCN)C(=O)N[C@@H](C)B2O[C@@H]3C[C@@H]4C[C@@H](C4(C)C)[C@]3(C)O2)[C@@H](C)O)C1 (stereo partly drawn) [Compound 280] (H-[X32]KTAK-{boroAla((+)-pinanediol)}),>64,64,–
CCCCc1ccc(-c2ccc(S(=O)(=O)N[C@@H](CCN)C(=O)N[C@H](C(=O)N[C@@H](C)C(=O)N[C@@H](CCCCN)C(=O)N[C@@H](C)B3O[C@@H]4C[C@@H]5C[C@@H](C5(C)C)[C@]4(C)O3)[C@@H](C)O)cn2)cc1 [Compound 232] (X18-[Dab]TAK-{boroAla((+)-pinanediol)}),11,1.5,–
C[C@H](NC(=O)[C@H](CCCCN)NC(=O)[C@H](C)NC(=O)[C@@H](NC(=O)[C@H](CCCCN)NS(=O)(=O)c1ccc(-c2ccccc2)cn1)[C@@H](C)O)B1O[C@@H]2C[C@@H]3C[C@@H](C3(C)C)[C@]2(C)O1 [Compound 231] (X31-KTAK-{boroAla((+)-pinanediol)}),>64,32,–
